What was measured:
Assay type in all cases: in vivo
[1] = test system: Plutella xylostella; assay: Test Example 1: Mortality Test for Plutella xylostella; details: 144 h
Experimental: (§1) A 10% emulsifiable concentrate of the compound of the present invention (depending on the type of the compound, a 10% wettable powder was subjected to the test) was diluted with water containing a spreader to prepare a drug solution in a concentration of 10 ppm. In this drug solution, a leaf of canarium album was immersed for about 10 seconds and was air-dried and then put into a petri dish. In the petri dish, five 2 instar larvae of Plutella xylostella per petri dish were released and the petri dish was capped and stored in a thermostat room of 25° C. The number of killed larvae after 6 days was measured and the mortality was calculated from the following calculation formula: Mortality (%)=(number of killed larvae/number of released larvae)×100. Here, the test was carried out with two replications.

[2] = test system: Spodoptera litura; assay: Test Example 2: Mortality Test for Spodoptera litura; details: 144 h
Experimental: as §1, with “Spodoptera litura” for “Plutella xylostella”, “same” for “following”, “formula as that in Test Example 1.” for “formula: Mortality (%)=(number of killed larvae/number of released larvae)×100.”

[3] = test system: Frankliniella occidentalis; assay: Test Example 5: Mortality Test for Frankliniella occidentalis; details: 48 h
Experimental: (§2) In a styrol cup having an inner diameter of 7 cm, a wet filtration paper was laid, and on the paper, a leaf of kidney bean cut out so as to have the same diameter as the inner diameter of the cup was laid, followed by inoculating ten 1 instar larvae of Frankliniella occidentalis per leaf to the leaf. A 10% emulsifiable concentrate of the compound of the present invention (depending on the type of the compound, a 10% wettable powder was subjected to the test) was diluted with water containing a spreader to prepare a drug solution in a concentration of 500 ppm. The drug solution was dusted using a rotary dusting tower in an amount of 2.5 mL per styrol cup and the cup was capped and stored in a thermostat room of 25° C. The number of killed larvae after 2 days was measured and the mortality was calculated from the same calculation formula as that in Test Example 1. Here, the test was carried out with two replications.

[4] = test system: Eysarcoris lewisi; assay: Test Example 7: Mortality Test for Eysarcoris lewisi; details: in Oryza sativa, 48 h
Experimental: (§3) A 10% emulsifiable concentrate of the compound of the present invention (depending on the type of the compound, a 10% wettable powder was subjected to the test) was diluted with water containing a spreader to prepare a drug solution in a concentration of 500 ppm. In this drug solution, a leaf sheath of Oryza sativa was immersed for about 10 seconds and was air-dried and then put into a test tube. In the test tube, five 1 instar larvae of Eysarcoris lewisi per one test tube were released and the test tube was capped with a sponge and stored in a thermostat room of 25° C. The number of killed larvae after 2 days was measured and the mortality was calculated from the same calculation formula as that in Test Example 1. Here, the test was carried out with two replications.

[5] = test system: Nilaparvata lugens; assay: Test Example 8: Mortality Test for Nilaparvata lugens; details: 144 h, drug solution 500 ppm, Oryza sativa leaf sheath immersed, 2 instar larvae, after 6 days
Experimental: as §3, with “five 2” for “five 1”, “of Nilaparvata lugens” for “of Eysarcoris lewisi”, “per” for “per one”, “after 6” for “after 2”

[6] = test system: Bemisia argentifolii; assay: Test Example 9: Mortality Test for Bemisia argentifolii; details: in Solanum lycopersicum, 144 h
Experimental: In a styrol cup having an inner diameter of 7 cm, a wet filtration paper was laid, and on the paper, a cut-out leaf of tomato on which Bemisia argentifolii laid eggs (10 eggs/leaf) was laid. A 10% emulsifiable concentrate of the compound of the present invention (depending on the type of the compound, a 10% wettable powder was subjected to the test) was diluted with water containing a spreader to prepare a drug solution in a concentration of 500 ppm. The drug solution was dusted using a rotary dusting tower in an amount of 2.5 mL per styrol cup and the cup was capped and stored in a thermostat room of 25° C. The number of killed larvae after 6 days was measured and the mortality was calculated from the same calculation formula as that in Test Example 1. Here, the test was carried out with two replications.

[7] = test system: Tetranychus urticae; assay: Test Example 14: Mortality Test for Tetranychus urticae; details: 144 h
Experimental: as §2, with “inoculating 10” for “inoculating ten 1 instar”, “of Tetranychus urticae” for “of Frankliniella occidentalis”, “after 6” for “after 2”

[8] = test system: Ctenocephalides felis; assay: Test Example 15: Mortality Test for Cat Flea; details: 96 h
Experimental: To the bottom surface and the side surface of a petri dish having an inner diameter of 5.3 cm, 400 μL of an acetone solution in which 40 mg of the compound of the present invention was dissolved in 40 mL of acetone (concentration: 1,000 ppm) was applied and the acetone was volatilized to form a thin film of the compound of the present invention on the inner wall of the petri dish. The inner wall of the used petri dish has an area of 40 cm^2, so that the amount of the applied drug is 1 μg/cm^2. In the petri dish, 10 Ctenocephalides felis imagines (male and female were mixed) were released and the petri dish was capped and stored in a thermostat room of 25° C. The number of killed larvae after 4 days was measured and the mortality was calculated from the same calculation formula as that in Test Example 1. Here, the test was carried out on the single sample.

Cc1cc(C2=NOC(c3cc(Cl)cc(Cl)c3)(C(F)(F)F)C2)ccc1C(=O)NC1(c2ccccn2)CC1 (centres unmarked) [No. 1-007, 4-[5-(3,5-Dichlorophenyl)-5-trifluoromethyl-4,5-dihydroisoxazole-3-yl]-2-methyl-N-[1-(2-pyridyl)cyclopropyl]benzamide]
≥ 80%: mortality at 10 ppm [1] | mortality at 10 ppm [2] | mortality at 500 ppm [3] | mortality at 500 ppm [4] | mortality at 500 ppm [5] | mortality at 500 ppm [6] | mortality at 500 ppm [7] | mortality at 1000 ppm, 1 µg/cm2 [8]
